This note sets out measurements from patent US12539292B2, “BRM targeting compounds and associated methods of use” (Arvinas Operations, Inc., priority 2018, dated 2026).

This test concerns the target T1, BRM (Homo sapiens, UniProt P51531).
T1 construct: In-Cell Western Screen of BRM Degradation in SW1573 Cells; endogenous in cells; host or cells: SW1573
Kind of test: In-cell Western screen of BRM degradation in SW1573 cells (Dmax and DC50). It is filed as cell-based. The conditions noted are these: for Dmax: read-out: Dmax (%) (% degraded). In outline: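 After adhering overnight, cells received compound for 18-20 hours. They were then washed in cold DPBS, fixed with 4% PFA for 20 min and permeabilized for 30 min. Blocking and fluorescent secondary staining followed before imaging.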

Where [1] appears, read: BRM degradation, SW1573 cells, read-out: DC50.
[2] abbreviates: BRM degradation, SW1573 cells, tested at the top concentration of between 0.3 and 10 μM.

The structures appear in SMILES notation. Where two headings read alike, the source gives them in different places. A value given as a limit tells only on which side of the number the result lay.

T1 sequence (P51531 whole entry): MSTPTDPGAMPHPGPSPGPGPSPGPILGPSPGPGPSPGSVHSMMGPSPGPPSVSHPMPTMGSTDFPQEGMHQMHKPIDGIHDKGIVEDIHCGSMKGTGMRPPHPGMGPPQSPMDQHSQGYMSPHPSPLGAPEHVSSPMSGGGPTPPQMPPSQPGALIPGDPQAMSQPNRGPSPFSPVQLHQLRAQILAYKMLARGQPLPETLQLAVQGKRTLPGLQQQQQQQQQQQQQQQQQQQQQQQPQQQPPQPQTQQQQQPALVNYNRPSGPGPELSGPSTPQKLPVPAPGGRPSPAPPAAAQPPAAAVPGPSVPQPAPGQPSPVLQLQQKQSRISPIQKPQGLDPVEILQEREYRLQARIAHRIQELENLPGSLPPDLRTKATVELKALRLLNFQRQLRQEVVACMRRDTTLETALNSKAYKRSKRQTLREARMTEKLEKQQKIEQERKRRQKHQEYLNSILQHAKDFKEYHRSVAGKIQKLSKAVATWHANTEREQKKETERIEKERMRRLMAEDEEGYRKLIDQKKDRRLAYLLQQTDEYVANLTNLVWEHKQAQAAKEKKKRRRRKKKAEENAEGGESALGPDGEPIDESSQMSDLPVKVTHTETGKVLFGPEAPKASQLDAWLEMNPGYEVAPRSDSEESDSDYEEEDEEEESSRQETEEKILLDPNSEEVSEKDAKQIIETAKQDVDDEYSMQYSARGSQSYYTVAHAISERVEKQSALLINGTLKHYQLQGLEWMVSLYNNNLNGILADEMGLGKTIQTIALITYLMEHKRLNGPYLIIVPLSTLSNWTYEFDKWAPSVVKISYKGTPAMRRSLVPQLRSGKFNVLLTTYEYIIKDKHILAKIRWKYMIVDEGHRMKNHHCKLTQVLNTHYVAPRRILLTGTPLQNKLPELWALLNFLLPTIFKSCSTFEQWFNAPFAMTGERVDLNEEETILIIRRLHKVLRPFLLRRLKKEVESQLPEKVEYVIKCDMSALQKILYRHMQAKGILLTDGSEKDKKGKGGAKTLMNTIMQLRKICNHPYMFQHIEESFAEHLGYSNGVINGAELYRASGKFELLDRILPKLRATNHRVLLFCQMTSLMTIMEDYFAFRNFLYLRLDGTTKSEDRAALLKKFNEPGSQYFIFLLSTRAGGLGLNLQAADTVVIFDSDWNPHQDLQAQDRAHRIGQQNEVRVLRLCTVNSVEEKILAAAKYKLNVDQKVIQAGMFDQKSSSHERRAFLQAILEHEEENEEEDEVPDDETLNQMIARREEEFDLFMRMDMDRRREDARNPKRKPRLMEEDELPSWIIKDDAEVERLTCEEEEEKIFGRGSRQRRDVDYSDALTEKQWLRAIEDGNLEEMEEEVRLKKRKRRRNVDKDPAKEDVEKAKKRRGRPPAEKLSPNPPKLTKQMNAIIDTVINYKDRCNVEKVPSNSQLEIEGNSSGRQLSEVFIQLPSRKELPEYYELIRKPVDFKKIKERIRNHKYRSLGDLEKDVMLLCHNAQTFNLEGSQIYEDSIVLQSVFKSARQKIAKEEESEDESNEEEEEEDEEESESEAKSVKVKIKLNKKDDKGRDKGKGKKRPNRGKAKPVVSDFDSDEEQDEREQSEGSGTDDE

As for `Cc1ncoc1-c1ccc([C@H](C)NC(=O)[C@@H]2C[C@@H](O)CN2C(=O)[C@@H](c2cc(OCCN3CCN(CCOc4cc(N5C6CCC5CN(c5cc(-c7ccccc7O)nnc5N)C6)ccn4)CC3)no2)C(C)C)cc1` [compound 300, (2S,4R)-1-((2R)-2-(3-(2-(4-(2-((4-(3-(3-amino-6-(2-hydroxyphenyl)pyridazin-4-yl)-3,8-diazabicyclo[3.2.1]octan-8-yl)pyridin-2-yl)oxy)ethyl)piperazin-1-yl)ethoxy)isoxazol-5-yl)-3-methylbutanoyl)-4-hydroxy-N-((S)-1-(4-(4-methyloxazol-5-yl)phenyl)ethyl)pyrrolidine-2-carboxamide], the half-maximal degradation concentration (DC50) under setting [1] was under 2.5 nM. Also, the maximal degradation (Dmax) under setting [2] is over 75%.

`Cc1ncsc1-c1ccc([C@H](COCC2CCOCC2)NC(=O)[C@@H]2C[C@@H](O)CN2C(=O)[C@@H](c2cc(OCCN3CCN(CCOc4cc(N5C6CCC5CN(c5cc(-c7ccccc7O)nnc5N)C6)ccn4)CC3)no2)C(C)C)cc1` [compound 130, (2S,4R)-1-((2R)-2-(3-(2-(4-(2-((4-(3-(3-amino-6-(2-hydroxyphenyl)pyridazin-4-yl)-3,8-diazabicyclo[3.2.1]octan-8-yl)pyridin-2-yl)oxy)ethyl)piperazin-1-yl)ethoxy)isoxazol-5-yl)-3-methylbutanoyl)-4-hydroxy-N-((R)-1-(4-(4-methylthiazol-5-yl)phenyl)-2-((tetrahydro-2H-pyran-4-yl)methoxy)ethyl)pyrrolidine-2-carboxamide]: under setting [1], the half-maximal degradation concentration (DC50) lay in the range of 2.5 to 10 nM. For the same molecule, the greatest degradation seen (Dmax) (BRM degradation, SW1573 cells, when tested at the top concentration of between 0.3 and 10 μM) was over 75%.

For `CC(C)[C@H](C(=O)N1C[C@H](O)C[C@H]1C(=O)N[C@@H](C)c1ccc(-n2ccnc2CO)cc1)c1cc(OCC#Cc2ccc(O[C@H]3C[C@H](Oc4cc(N5C6CCC5CN(c5cc(-c7ccccc7O)nnc5N)C6)ccn4)C3)cn2)no1` [compound 284, (2S,4R)-1-((2S)-2-(3-((3-(5-((1r,3S)-3-((4-(3-(3-amino-6-(2-hydroxyphenyl)pyridazin-4-yl)-3,8-diazabicyclo[3.2.1]octan-8-yl)pyridin-2-yl)oxy)cyclobutoxy)pyridin-2-yl)prop-2-yn-1-yl)oxy)isoxazol-5-yl)-3-methylbutanoyl)-4-hydroxy-N-((S)-1-(4-(2-(hydroxymethyl)-1H-imidazol-1-yl)phenyl)ethyl)pyrrolidine-2-carboxamide], the DC50 under setting [1] lay within 10 to 30 nM. Moreover, under setting [2], the maximal degradation (Dmax) was over 75%.

Regarding `Cc1ncsc1-c1ccc([C@H](C)NC(=O)[C@@H]2C[C@@H](O)CN2C(=O)[C@H](c2cc(OCC#CC34CC(CNC5CC(Oc6cc(N7C8CC[C@@H]7CN(c7cc(-c9ccccc9O)nnc7N)C8)ccn6)C5)(C3)C4)no2)C(C)C)cc1` (stereo partly drawn) [compound 381, (2S,4R)-1-((2S)-2-(3-((3-(3-((((1r,3S)-3-((4-(3-(3-amino-6-(2-hydroxyphenyl)pyridazin-4-yl)-3,8-diazabicyclo[3.2.1]octan-8-yl)pyridin-2-yl)oxy)cyclobutyl)amino)methyl)bicyclo[1.1.1]pentan-1-yl)prop-2-yn-1-yl)oxy)isoxazol-5-yl)-3-methylbutanoyl)-4-hydroxy-N-((S)-1-(4-(4-methylthiazol-5-yl)phenyl)ethyl)pyrrolidine-2-carboxamide], the “BRM Dmax (%)” value (% degraded, when tested at the top concentration of between 0.3 and 10 μM) is given as “A (A > 75)”. Besides, the DC50 (target protein degradation, read-out: BRM DC50) lay in the range of 10 to 30 nM.

As to `Cc1cnn(C)c1-c1ccc([C@H](C)NC(=O)[C@@H]2C[C@@H](O)CN2C(=O)[C@@H](c2cc(OCCN3CCC(O[C@H]4C[C@H](Oc5cc(N6C7CCC6CN(c6cc(-c8ccccc8O)nnc6N)C7)ccn5)C4)CC3)no2)C(C)C)cc1` [compound 295, (2S,4R)-1-((2R)-2-(3-(2-(4-((1r,3R)-3-((4-(3-(3-amino-6-(2-hydroxyphenyl)pyridazin-4-yl)-3,8-diazabicyclo[3.2.1]octan-8-yl)pyridin-2-yl)oxy)cyclobutoxy)piperidin-1-yl)ethoxy)isoxazol-5-yl)-3-methylbutanoyl)-N-((S)-1-(4-(1,4-dimethyl-1H-pyrazol-5-yl)phenyl)ethyl)-4-hydroxypyrrolidine-2-carboxamide], the DC50 under setting [1] is under 2.5 nM. The greatest degradation seen (Dmax) under setting [2] was over 75%.
